Results reported in patent publication US9695155B2, “Herbicidal substituted pyrimidinyloxy benzene compounds” (E. I. DU PONT DE NEMOURS AND COMPANY, priority 2013, dated 2017).

Assays:
pigweed [1] = assay: Test A preemergence; format: in vivo, Amaranthus retroflexus; details: for Plant response rating, Pigweed: 0 to 100 scale where 0 is no effect and 100 is complete control; for Pigweed plant response rating: 500 g ai/ha, 0 to 100 scale, 0 no effect, 100 complete control, approx. 10 days
Method in brief: (§1)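 Visual injury scored 0–100 (100 = complete control) against untreated controls about 10 days after treatment in a greenhouse. Test chemicals, formulated with surfactant in non-phytotoxic solvent, were sprayed on soil preemergence or on 2-10 cm, one- to two-leaf plants postemergence.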

pigweed [2] = assay: Test A postemergence; format: in vivo, Amaranthus retroflexus
Method in brief: as §1

sedge, umbrella = assay: Test B flooded paddy test; format: in vivo, Cyperus difformis; details: Flood, 250 g ai/ha; 0 to 100 scale where 0 is no effect and 100 is complete control
Method in brief: (§2)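 Plants were grown to the 2-leaf stage, then pots were flooded to 3 cm above the soil and compounds were applied directly into the paddy water. That depth was held throughout, and after 13 to 15 days in the greenhouse injury was rated visually against controls on a 0–100 scale (0 no effect, 100 complete control).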

Heteranthera limosa = assay: Test B flooded paddy test; format: in vivo; details: Flood, 250 g ai/ha; 0 to 100 scale where 0 is no effect and 100 is complete control
Method in brief: as §2

barnyardgrass [3] = assay: Test B flooded paddy test; format: in vivo, Echinochloa crus-galli; details: Flood, 250 g ai/ha; 0 to 100 scale where 0 is no effect and 100 is complete control
Method in brief: as §2

wheat, winter = assay: Test C postemergence; format: in vivo, Triticum aestivum
Method in brief: (§3)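 Preemergence: seeds sown in a loam soil–sand blend and sprayed with test chemical in a non-phytotoxic solvent mixture containing surfactant. Postemergence: plants at 2 to 18 cm (1- to 4-leaf stage) in peat-based medium, treated with the same formulation. Greenhouse 13 to 15 days, then visual rating 0 (no effect) to 100 (complete control).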

corn = assay: Test C postemergence; format: in vivo, Zea mays; details: for Corn plant response rating / Plant response rating, Corn: scale 0 to 100 (0 no effect, 100 complete control)
Method in brief: as §3

large (Lg) crabgrass = assay: Test C postemergence; format: in vivo, Digitaria sanguinalis; details: for Crabgrass, Large plant response rating / Plant response rating, Crabgrass, Large: scale 0 to 100 (0 no effect, 100 complete control)
Method in brief: as §3

johnsongrass = assay: Test C postemergence; format: in vivo, Sorghum halepense; details: for Johnsongrass plant response rating / Plant response rating, Johnsongrass: scale 0 to 100 (0 no effect, 100 complete control)
Method in brief: as §3

barnyardgrass [4] = assay: Test C postemergence; format: in vivo, Echinochloa crus-galli; details: for Barnyardgrass plant response rating / Plant response rating, Barnyardgrass: scale 0 to 100 (0 no effect, 100 complete control)
Method in brief: as §3

oilseed rape = assay: Test C postemergence; format: in vivo, Brassica napus
Method in brief: as §3

waterhemp = assay: Test C postemergence; format: in vivo, Amaranthus rudis
Method in brief: as §3

chickweed = assay: Test C postemergence; format: in vivo, Stellaria media; details: for Chickweed plant response rating / Plant response rating, Chickweed: scale 0 to 100 (0 no effect, 100 complete control)
Method in brief: as §3

[5] = 125 g ai/ha, 0 to 100 scale where 0 is no effect and 100 is complete control
[6] = 500 g ai/ha, 0 to 100 scale where 0 is no effect and 100 is complete control
[7] = Postemergence, 31 g ai/ha, scale 0 to 100 (0 no effect, 100 complete control), 13 to 15 days
[8] = Postemergence, 62 g ai/ha, scale 0 to 100 (0 no effect, 100 complete control)
[9] = 16 g ai/ha, postemergence, visual rating, 13 to 15 days
[10] = Postemergence, 31 g ai/ha, 13 to 15 days
[11] = 16 g ai/ha, postemergence, 0 is no effect, 100 is complete control
[12] = 31 g ai/ha, postemergence, visual rating, scale 0 to 100 (0 no effect, 100 complete control), 13 to 15 days
[13] = 125 g ai/ha, postemergence, visual rating, scale 0 to 100 (0 no effect, 100 complete control)
[14] = Postemergence, 62 g ai/ha, scale 0 to 100 (0 no effect, 100 complete control), 13 to 15 days
[15] = 31 g ai/ha, postemergence, visual rating, 13 to 15 days
[16] = 125 g ai/ha, postemergence, visual rating
[17] = Postemergence, 62 g ai/ha, 13 to 15 days

Cc1cnc(Oc2cccc(C#N)c2-n2cc(C#N)cn2)nc1 [Compound 90]
Plant response rating, Pigweed (pigweed [1]; 125 g ai/ha): 100 | Pigweed plant response rating (pigweed [1]): 100 | Plant response rating, Pigweed (pigweed [2]; [5]): 100 | Plant response rating, Pigweed (pigweed [2]; [6]): 100 | Plant response rating, Sedge, Umbrella (sedge, umbrella): 40 | Plant response rating, Ducksalad (Heteranthera limosa): 40 | Plant response rating, Barnyardgrass (barnyardgrass [3]): 0 | Plant response rating (0 to 100), Wheat (wheat, winter; 125 g ai/ha, postemergence): 0 | Plant response rating, Wheat (wheat, winter; [7]): 0 | Plant response rating, Wheat (wheat, winter; [8]): 0 | Corn plant response rating (corn; [9]): 0 | Plant response rating (0 to 100), Corn (corn; 125 g ai/ha, postemergence): 5 | Plant response rating, Corn (corn; [10]): 5 | Plant response rating, Corn (corn; Postemergence, 62 g ai/ha): 5 | Crabgrass, Large plant response rating (large (Lg) crabgrass; [9]): 5 | Plant response rating (0 to 100), Crabgrass, Large (large (Lg) crabgrass; 125 g ai/ha, postemergence): 10 | Plant response rating, Crabgrass, Large (large (Lg) crabgrass; [10]): 5 | Plant response rating, Crabgrass, Large (large (Lg) crabgrass; Postemergence, 62 g ai/ha): 10 | Johnsongrass plant response rating (johnsongrass; [9]): 0 | Plant response rating (0 to 100), Johnsongrass (johnsongrass; 125 g ai/ha, postemergence): 5 | Plant response rating, Johnsongrass (johnsongrass; [10]): 5 | Plant response rating, Johnsongrass (johnsongrass; Postemergence, 62 g ai/ha): 5 | Barnyardgrass plant response rating (barnyardgrass [4]; [9]): 5 | Plant response rating (0 to 100), Barnyardgrass (barnyardgrass [4]; 125 g ai/ha, postemergence): 10 | Plant response rating, Barnyardgrass (barnyardgrass [4]; [10]): 5 | Plant response rating, Barnyardgrass (barnyardgrass [4]; Postemergence, 62 g ai/ha): 5 | Plant response rating (0 to 100), Oilseed Rape (oilseed rape; 125 g ai/ha, postemergence): 40 | Plant response rating, Oilseed Rape (oilseed rape; [7]): 5 | Plant response rating, Oilseed Rape (oilseed rape; [8]): 50 | Plant response rating (0 to 100), Waterhemp (waterhemp; 125 g ai/ha, postemergence): 75 | Plant response rating, Waterhemp (waterhemp; [7]): 35 | Plant response rating, Waterhemp (waterhemp; [8]): 65 | Chickweed plant response rating (chickweed; [9]): 5 | Plant response rating (0 to 100), Chickweed (chickweed; 125 g ai/ha, postemergence): 50 | Plant response rating, Chickweed (chickweed; [10]): 30 | Plant response rating, Chickweed (chickweed; Postemergence, 62 g ai/ha): 15

FCc1cccc(Oc2ncc(Cl)cn2)c1-n1cc(I)cn1 [Compound 245]
Plant response rating, Pigweed (pigweed [1]; 31 g ai/ha, visual, approximately 10 days): 90 | Pigweed plant response rating (0 to 100 scale) (pigweed [1]; 125 g ai/ha): 90 | Plant response rating, Pigweed (pigweed [2]; 31 g ai/ha, 0 to 100 scale, 0 no effect, 100 complete control): 0 | Plant response rating, Pigweed (pigweed [2]; 125 g ai/ha, 0 to 100 scale, 0 no effect, 100 complete control): 90 | Plant response rating, Sedge, Umbrella (sedge, umbrella): 60 | Plant response rating, Ducksalad (Heteranthera limosa): 75 | Plant response rating, Barnyardgrass (barnyardgrass [3]): 0 | Plant response rating (0 to 100), Wheat (wheat, winter; [11]): 0 | Wheat plant response rating (wheat, winter; [12]): 0 | Plant response rating, Wheat (wheat, winter; [13]): 5 | Plant response rating, Wheat (wheat, winter; [14]): 0 | Plant response rating (0 to 100), Corn (corn; [11]): 5 | Corn plant response rating (corn; [15]): 5 | Plant response rating, Corn (corn; [16]): 5 | Plant response rating, Corn (corn; [17]): 5 | Plant response rating (0 to 100), Crabgrass, Large (large (Lg) crabgrass; [11]): 5 | Crabgrass, Large plant response rating (large (Lg) crabgrass; [15]): 5 | Plant response rating, Crabgrass, Large (large (Lg) crabgrass; [16]): 15 | Plant response rating, Crabgrass, Large (large (Lg) crabgrass; [17]): 10 | Plant response rating (0 to 100), Johnsongrass (johnsongrass; [11]): 5 | Johnsongrass plant response rating (johnsongrass; [15]): 5 | Plant response rating, Johnsongrass (johnsongrass; [16]): 10 | Plant response rating, Johnsongrass (johnsongrass; [17]): 10 | Plant response rating (0 to 100), Barnyardgrass (barnyardgrass [4]; [11]): 5 | Barnyardgrass plant response rating (barnyardgrass [4]; [15]): 5 | Plant response rating, Barnyardgrass (barnyardgrass [4]; [16]): 5 | Plant response rating, Barnyardgrass (barnyardgrass [4]; Postemergence, 62 g ai/ha): 5 | Plant response rating (0 to 100), Oilseed Rape (oilseed rape; [11]): 40 | Oilseed Rape plant response rating (oilseed rape; [12]): 50 | Plant response rating, Oilseed Rape (oilseed rape; [13]): 80 | Plant response rating, Oilseed Rape (oilseed rape; [14]): 50 | Plant response rating (0 to 100), Waterhemp (waterhemp; [11]): 60 | Waterhemp plant response rating (waterhemp; [12]): 65 | Plant response rating, Waterhemp (waterhemp; [13]): 75 | Plant response rating, Waterhemp (waterhemp; [14]): 85 | Plant response rating (0 to 100), Chickweed (chickweed; [11]): 5 | Chickweed plant response rating (chickweed; [15]): 60 | Plant response rating, Chickweed (chickweed; [16]): 100 | Plant response rating, Chickweed (chickweed; [17]): 80

CC(C)c1cnn(-c2c(C#N)cccc2Oc2ncc(Cl)cn2)c1 [Compound 85]
Plant response rating, Pigweed (pigweed [1]; 125 g ai/ha): 100 | Pigweed plant response rating (pigweed [1]): 100 | Plant response rating, Pigweed (pigweed [2]; [5]): 80 | Plant response rating, Pigweed (pigweed [2]; [6]): 100 | Plant response rating, Sedge, Umbrella (sedge, umbrella): 30 | Plant response rating, Ducksalad (Heteranthera limosa): 30 | Plant response rating, Barnyardgrass (barnyardgrass [3]): 0 | Plant response rating (0 to 100), Wheat (wheat, winter; 125 g ai/ha, postemergence): 0 | Plant response rating, Wheat (wheat, winter; [7]): 0 | Plant response rating, Wheat (wheat, winter; [8]): 5 | Corn plant response rating (corn; [9]): 5 | Plant response rating (0 to 100), Corn (corn; 125 g ai/ha, postemergence): 10 | Plant response rating, Corn (corn; [10]): 5 | Plant response rating, Corn (corn; Postemergence, 62 g ai/ha): 10 | Crabgrass, Large plant response rating (large (Lg) crabgrass; [9]): 10 | Plant response rating (0 to 100), Crabgrass, Large (large (Lg) crabgrass; 125 g ai/ha, postemergence): 10 | Plant response rating, Crabgrass, Large (large (Lg) crabgrass; [10]): 10 | Plant response rating, Crabgrass, Large (large (Lg) crabgrass; Postemergence, 62 g ai/ha): 5 | Johnsongrass plant response rating (johnsongrass; [9]): 0 | Plant response rating (0 to 100), Johnsongrass (johnsongrass; 125 g ai/ha, postemergence): 10 | Plant response rating, Johnsongrass (johnsongrass; [10]): 0 | Plant response rating, Johnsongrass (johnsongrass; Postemergence, 62 g ai/ha): 5 | Barnyardgrass plant response rating (barnyardgrass [4]; [9]): 10 | Plant response rating (0 to 100), Barnyardgrass (barnyardgrass [4]; 125 g ai/ha, postemergence): 5 | Plant response rating, Barnyardgrass (barnyardgrass [4]; [10]): 5 | Plant response rating, Barnyardgrass (barnyardgrass [4]; Postemergence, 62 g ai/ha): 5 | Plant response rating (0 to 100), Oilseed Rape (oilseed rape; 125 g ai/ha, postemergence): 15 | Plant response rating, Oilseed Rape (oilseed rape; [7]): 5 | Plant response rating, Oilseed Rape (oilseed rape; [8]): 30 | Plant response rating (0 to 100), Waterhemp (waterhemp; 125 g ai/ha, postemergence): 60 | Plant response rating, Waterhemp (waterhemp; [7]): 55 | Plant response rating, Waterhemp (waterhemp; [8]): 70 | Chickweed plant response rating (chickweed; [9]): 5 | Plant response rating (0 to 100), Chickweed (chickweed; 125 g ai/ha, postemergence): 40 | Plant response rating, Chickweed (chickweed; [10]): 40 | Plant response rating, Chickweed (chickweed; Postemergence, 62 g ai/ha): 50
